In US4418077A, “Fluorinated amino-butyric acid and diaminobutane derivatives” (Merrell Toraude et Compagnie, priority 1980, dated 1983):

Assays:
Assay type in all cases: in vivo
GABA-T = GABA-T activity in brain of mice after four daily i.p. doses; conditions: brain 24 hours after last dose
Method: (§1) A group of 10 male albino CD1 mice from Charles Riner, France, is given an i.p. injection of the test compound in aqueous solution daily for four consecutive days. Half of the animals are killed by decapitation 24 hours after the last dose fo the test compound. The other half of the animals are observed for up to 12 days for toxicity (as indicated by weight loss and deaths). Control animals receive an injection of the vehicle only.
(§2) The brains are removed from the dead mice and are divided into two portions by sagittal section. One half is used for the measurement of GABA-T activity while the other is used for measuring GABA content. The GABA-T activity is measured using known methods as described by M. Jung et al., J. Neurochem., 28, 717 (1977) and 29, 797 (1977), GABA content is measured by perchloric acid or trichloroacetic acid extracts using an amino acid analyzer equiped with a fluoresence detector.

brain GABA = assay: GABA content of brain of mice after four daily i.p. doses; conditions: brain 24 hours after last dose
Method: as §1, §2

[1] = Toxicity in mice (weight loss and deaths), observed up to 12 days; conditions: mouse, in vivo, ip, daily dose 1 mg/kg for 4 days, observed up to 12 days, read-out: Mortality (After Treatment)
Method: as §1

mice = assay: as above; conditions: i.p.
Method: as §1

[2] = daily dose 2.5 mg/kg for 4 days

With `NC(CF)C(F)C(=O)O` (stereo not drawn) [2,4-difluoro-3-amino-butyric acid, 2,4-DIFLUORO-3-AMINO-BUTYRIC ACID] the “GABA-T Inhibition (%)” value (GABA-T; daily dose 1 mg/kg for 4 days) was 50%, the “GABA-T Inhibition (%)” value (GABA-T; [2]) was 83% and the “GABA-T Inhibition (%)” value (GABA-T; daily dose 5 mg/kg for 4 days) was 87%. The “GABA Elevation (%)” value (brain GABA; daily dose 1 mg/kg for 4 days) was 150%, the “GABA Elevation (%)” value (brain GABA; [2]) was 225% and the “GABA Elevation (%)” value (brain GABA; daily dose 5 mg/kg for 4 days) was 250%. The mortality at 288 h [1] was 0%, the “Weight Loss %” value (mice; daily dose 1 mg/kg for 4 days) was 0% and the “Weight Loss %” value (mice; [2]) was -5%. For the same compound, the “Mortality (After Treatment)” value (mice; daily dose 2.5 mg/kg for 4 days, deaths by day 6) was 2/5, the “Weight Loss %” value (mice; daily dose 5 mg/kg for 4 days) was -25% and the “Mortality (After Treatment)” value (mice; daily dose 5 mg/kg for 4 days, deaths by day 7) was 5/5.
